Experimental findings from PubChem BioAssay (NCI) are described below.

Common to all, as to experiment: DTP human tumour cell line panel, 48 h
Experiment [1] has as its system HCT-116 colon.
The test system of experiment [2] is 786-0 renal.
The test system of experiment [3] is SNB-19 CNS.
Experiment [4] relates to SF-539 CNS.
The test system of experiment [5] is PC-3 prostate.
Experiment [6] deals with SW-620 colon.
Experiment [7] concerns SF-268 CNS.
The test system of experiment [8] is U251 CNS.
The test system of experiment [9] is LOX IMVI melanoma.
In experiment [10] the test system is K-562 leukemia.
The test system of experiment [11] is HCC-2998 colon.
Experiment [12] has as its system NCI/ADR-RES ovarian.
Experiment [13] has as its system T-47D breast.
Experiment [14] deals with SN12C renal.
The subject of experiment [15] is HOP-62 NSCLC.
The test system of experiment [16] is MOLT-4 leukemia.
The test system of experiment [17] is DU-145 prostate.
In experiment [18] the test system is RXF 393 renal.
Experiment [19] deals with NCI-H226 lung.
Experiment [20] concerns HS 578T breast.

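Cells were grown in 96-well plates and exposed to each compound for 48 hours at five concentrations; endpoints were interpolated linearly between bracketing concentrations, or set to the highest concentration if not reached. TGI: concentration producing complete growth inhibition.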

Take `COC(=O)C1(Cc2ccc3c(c2)CCC3)Cc2cc3c(cc2C1=O)CCC3` (stereo not given): the TGI in experiment [1], in experiment [2], in experiment [3], in [4], in [5] and in experiment [6] was > 46.4 µM throughout. In addition, the TGI in experiment [7] is > 46.4 µM; in experiment [8] it was > 46.4 µM; in [9], > 46.4 µM; in experiment [10], > 46.4 µM; in experiment [11] it was 38.1 µM; in experiment [12] it was > 46.4 µM. In addition, the TGI in [13] was > 46.4 µM; in experiment [14] it was > 46.4 µM; in experiment [15], > 46.4 µM; in experiment [16] it was 38.7 µM; in [17], > 46.4 µM; in experiment [18], > 46.4 µM. For the same compound, the TGI in experiment [19] and in experiment [20] was > 46.4 µM throughout.

In the case of `CC(C(O)c1ccccc1)[N+](=O)[O-]` (stereo not given), the TGI in [1] is > 100 µM; in experiment [2] it was > 100 µM; in [3], 66 µM; in [4], 49.1 µM; in [5], 45.3 µM; in experiment [6] it was > 100 µM. In addition, the total growth inhibition concentration (TGI) in experiment [7] turned out to be 95.5 µM; in experiment [8], 38.4 µM; in experiment [9], 6.02 µM; in experiment [10] it was 59.1 µM; in experiment [11] it was 30.5 µM; in experiment [12], 93.1 µM. The TGI in [13] is 59.5 µM; in [14], 35.6 µM; in experiment [15], > 100 µM; in experiment [16] it was 4.88 µM; in experiment [17], 35.5 µM; in experiment [18], 27.7 µM. The TGI came to 48.3 µM in [19] and 98.7 µM in experiment [20].

On to `CC1=NN(c2cccc(Cl)c2)C2(C1)SCC(=O)N2c1nc2ccccc2s1` (stereo not given), for which the TGI in experiment [1] was 36.7 µM; in experiment [2], 56.1 µM; in experiment [3], > 100 µM; in experiment [4], 45.8 µM; in experiment [5] it was 65.1 µM; in experiment [6], > 100 µM. For the same compound, the TGI in experiment [7] was > 100 µM; in experiment [8], 75.2 µM; in [9], 41.6 µM; in experiment [10], 48.9 µM; in experiment [11], 38.5 µM; in experiment [12], > 100 µM. The TGI in experiment [13] was 84.4 µM; in [14] it was 69.1 µM; in experiment [15] it was 58.3 µM; in experiment [16], 38.9 µM; in experiment [17], > 100 µM; in experiment [18], 44.9 µM. The figures for the TGI in [19] and in [20] were 37.1 µM and > 100 µM, respectively.

Turning to `CS(=O)(=O)OC1CCN(C2(c3cccc(O)c3)CCCCC2)CC1`, the concentration for total growth inhibition (TGI) in [1] was > 100 µM; in experiment [2] it was 92.4 µM; in experiment [3] it was > 100 µM; in experiment [4] it was 89.9 µM; in experiment [5] it was > 100 µM; in experiment [6], > 100 µM. Also, the TGI is > 100 µM in experiment [7]; > 100 µM in [8]; 51.8 µM in experiment [9]; > 100 µM in [10]; 39.7 µM in [11]; > 100 µM in experiment [12]. Moreover, the total growth inhibition concentration (TGI) was > 100 µM in [13]; > 100 µM in [14]; > 100 µM in [15]; 94.1 µM in [16]; > 100 µM in experiment [17]; > 100 µM in [18]. In addition, the TGI in experiment [19] and in experiment [20] was > 100 µM in each case.

On to `CN(C)C(=O)CO/N=C1/C(c2c(O)[nH]c3ccccc23)=Nc2ccccc21`, for which the TGI in [1], in [2], in [3], in experiment [4], in experiment [5] and in [6] was > 100 µM in each case. The TGI in experiment [7], in experiment [8], in [9], in experiment [10], in experiment [11] and in [12] was > 100 µM each time. Further, the TGI in [13] was > 100 µM; in experiment [14], > 100 µM; in experiment [15], > 100 µM; in experiment [16] it was > 100 µM; in experiment [17], > 100 µM; in experiment [18], 58.6 µM. Further, the TGI in [19] and in [20] was > 100 µM each time.

For the compound `Nc1nc(SCc2ccccc2[N+](=O)[O-])c2[nH]cnc2n1`, the TGI in experiment [1], in [2], in experiment [3], in experiment [4], in experiment [5] and in experiment [6] was > 100 µM in each case. In addition, the TGI in experiment [7] is > 84.6 µM; in experiment [8] it was > 100 µM; in experiment [9], > 100 µM; in experiment [10], > 100 µM; in [11], 97.4 µM; in experiment [12], > 100 µM. Further, the TGI in experiment [13] is 74.1 µM; in experiment [14] it was > 100 µM; in [15], > 100 µM; in [16], > 100 µM; in [17], > 100 µM; in experiment [18] it was > 94 µM. Also, the TGI in experiment [19] was 97.5 µM; in experiment [20], 24.7 µM.

Take `S=C1NC2=C(COC/C2=C\c2ccccc2Cl)C(c2ccccc2Cl)N1` (stereo not given): the TGI in experiment [1] was 80.6 µM; in experiment [2], > 100 µM; in [3], > 100 µM; in [4] it was > 100 µM; in experiment [5], > 100 µM; in experiment [6], > 100 µM. The TGI in [7] is > 100 µM; in [8], > 100 µM; in experiment [9], 70.7 µM; in experiment [10], > 100 µM; in experiment [11], 89 µM; in [12], > 100 µM. Further, the TGI in experiment [13] is > 100 µM; in [14], > 100 µM; in experiment [15] it was > 100 µM; in experiment [16], 44.5 µM; in experiment [17], > 100 µM; in experiment [18] it was > 100 µM. Besides, the TGI in [19] and in [20] was > 100 µM each time.

In the case of `COc1cc(OC)c(NC2=NCCO2)cc1Cl`, the TGI in experiment [1] is 94.5 µM; in experiment [2], 90 µM; in [3], > 100 µM; in experiment [4], 53.3 µM; in [5], 71.8 µM; in experiment [6], > 100 µM. The TGI in experiment [7] is > 100 µM; in [8] it was > 100 µM; in [9], 99.3 µM; in [10], > 100 µM; in experiment [11], 71.1 µM; in [12], 91.7 µM. Further, the TGI in [13], in experiment [14], in experiment [15], in experiment [16], in [17] and in experiment [18] was > 100 µM each time. Moreover, the TGI is 75.6 µM in experiment [19] and > 100 µM in experiment [20].

As to `COc1ccc(CCNC(=S)/N=C\C2=C(O)c3ccccc3C2=O)cc1OC`, the total growth inhibition concentration (TGI) in [1], in experiment [2], in experiment [3], in [4], in [5] and in [6] was > 100 µM throughout. Besides, the TGI in [7], in experiment [8], in experiment [9], in experiment [10], in [11] and in experiment [12] was > 100 µM throughout. The TGI in experiment [13], in experiment [14], in experiment [15], in [16], in [17] and in experiment [18] was > 100 µM each time. For the same compound, the TGI was > 100 µM in [19] and 72.7 µM in experiment [20].

Turning to `O=C(O)C1(CC(CCCN2CCCCC2)c2ccccc2)CCCC1` (stereo not given), the TGI in experiment [1], in [2], in [3], in experiment [4], in experiment [5] and in [6] was > 100 µM in each case. Also, the TGI in experiment [7], in experiment [8], in experiment [9], in experiment [10], in experiment [11] and in [12] was > 100 µM each time. Also, the TGI in [13], in experiment [14], in experiment [15], in [16], in [17] and in experiment [18] was > 100 µM in each case. For the same compound, the TGI in [19] and in experiment [20] was > 100 µM throughout.

Consider `O=C(O)C1C2CCC(C2)C1c1ccccc1` (stereo not given), for which the TGI in experiment [1], in experiment [2], in experiment [3], in experiment [4], in experiment [5] and in experiment [6] was > 100 µM in each case. In addition, the TGI in [7], in experiment [8], in experiment [9], in experiment [10], in [11] and in [12] was > 100 µM in each case. The TGI in experiment [13], in experiment [14], in [15], in experiment [16], in [17] and in experiment [18] was > 100 µM each time. Also, the TGI in experiment [19] and in experiment [20] was > 100 µM each time.

Take `COc1ccc(-c2cc(-c3ccc(Nc4ccnc5cc(C(F)(F)F)ccc45)cc3)[nH]c(=O)c2C#N)cc1`: the TGI is > 100 µM in [1]; > 100 µM in experiment [2]; 56.7 µM in experiment [3]; > 68.9 µM in experiment [4]; > 100 µM in [5]; > 100 µM in experiment [6]. For the same compound, the TGI in [7] is > 88.6 µM; in [8], > 70.9 µM; in experiment [9], > 100 µM; in experiment [10], > 100 µM; in [11] it was > 100 µM; in [12], > 100 µM. Also, the TGI in [13] was > 100 µM; in experiment [14] it was > 100 µM; in experiment [15] it was > 41.1 µM; in experiment [16], > 100 µM; in [17] it was > 100 µM; in experiment [18], > 53.5 µM. Besides, the TGI in experiment [19] was > 70.9 µM; in [20], 49.6 µM.

Consider `O=C(OCc1c(-c2ccccc2)nn(-c2ccccc2)c1COC(=O)Oc1ccccc1)Oc1ccccc1`, for which the TGI in experiment [1], in [2], in experiment [3], in [4], in experiment [5] and in experiment [6] was > 100 µM throughout. The TGI in [7], in experiment [8], in experiment [9], in experiment [10], in experiment [11] and in experiment [12] was > 100 µM in each case. In addition, the TGI in experiment [13], in experiment [14], in experiment [15], in [16], in experiment [17] and in experiment [18] was > 100 µM each time. Moreover, the TGI in experiment [19] and in experiment [20] was > 100 µM throughout.

For `CCOc1ccc(-n2c(=O)n3c(Nc4ccc(Cl)cc4)nc4c(c(=O)n(C)c(=O)n4C)n3c2=O)cc1`, the total growth inhibition concentration (TGI) in experiment [1] was 40.2 µM; in [2] it was > 100 µM; in [3], > 100 µM; in [4], > 100 µM; in experiment [5], > 100 µM; in [6] it was 99.2 µM. Also, the TGI in experiment [7] was > 100 µM; in experiment [8] it was > 100 µM; in [9], 44.8 µM; in experiment [10] it was 84 µM; in [11], 34.4 µM; in experiment [12], > 100 µM. Moreover, the TGI in [13] was > 100 µM; in [14] it was 74.6 µM; in experiment [15] it was > 100 µM; in experiment [16], 69.9 µM; in [17], > 100 µM; in experiment [18], 43.2 µM. In addition, the figures for the concentration for total growth inhibition (TGI) in experiment [19] and in experiment [20] were 74.5 µM and > 100 µM, respectively.
